In one assay the target is T1, human FAAH-1 (Homo sapiens, UniProt O00519).
T1 sequence (O00519 1-579): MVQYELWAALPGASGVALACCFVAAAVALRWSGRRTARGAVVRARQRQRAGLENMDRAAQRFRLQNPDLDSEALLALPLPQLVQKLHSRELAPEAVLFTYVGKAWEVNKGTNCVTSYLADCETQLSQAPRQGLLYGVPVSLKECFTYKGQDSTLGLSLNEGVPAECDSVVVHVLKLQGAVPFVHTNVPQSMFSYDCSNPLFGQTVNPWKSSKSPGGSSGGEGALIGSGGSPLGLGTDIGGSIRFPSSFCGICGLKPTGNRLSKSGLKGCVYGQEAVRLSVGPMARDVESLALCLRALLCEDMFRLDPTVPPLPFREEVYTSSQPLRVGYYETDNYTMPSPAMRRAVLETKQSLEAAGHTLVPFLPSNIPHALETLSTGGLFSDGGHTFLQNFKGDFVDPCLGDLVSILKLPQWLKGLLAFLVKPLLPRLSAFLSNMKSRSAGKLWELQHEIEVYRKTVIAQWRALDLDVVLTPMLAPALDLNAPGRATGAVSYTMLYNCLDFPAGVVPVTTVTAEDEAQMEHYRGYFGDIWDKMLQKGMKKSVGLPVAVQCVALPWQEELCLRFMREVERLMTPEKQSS
Briefly: Whole cell anandamide hydrolysis assay (HeLa clone 5c5 transfected with human FAAH-1). Format: cell-based. To be noted: HeLa clone 5c5 expressing human FAAH-1; read-out: human FAAH whole cell IC50. The procedure: FAAH activity was assayed in whole cells using methods disclosed previously (Maccarone et al., 1998 J Biol. Chem. 273:32332 and Bisogno et al., 1997 J Biol. Chem. 272:3315). In addition to the cell lines described in Maccarone et al. and Bisogno et al., MCF7 (ATCC designation HTB-22) and T84 (ATCC designation CCL-248) cell lines were also used in these assays.
cDNA expression clone for human FAAH-1 (in pcDNA3 vector) (Genbank Accession U82535; obtained from Benjamin Cravatt, Scripps Research Institute, La Jolla, Calif.) was linearized by digestion with BglII (New England Biolabs) and transfected by calcium phosphate into human HeLa cells (ATCC catalog #CCL-2). […] Following transfection, a stable HeLa-derived clone, designated 5c5, was isolated by single colony purification and expanded and maintained in modified Eagles medium (MEM; VWR catalog #45000-300) containing 10% fetal bovine serum (FBS), 2 mM L-glutamine, and 0.5 mg/mL G-418 (Sigma catalog #G5013).
Clone 5c5 (50,000 cells in 150 μL) was seeded into 96-well plates and incubated overnight (5% CO2, 37° C.). Media was carefully replaced with 180 μL DMEM/F12 medium (VWR catalog #45000-350) containing 15 mM HEPES, pH 7.4 and 0.1% fatty acid free BSA (Sigma catalog #A0281). Then, 2 μL of 100× desired final concentrations of certain exemplary compounds described herein were made up in DMSO, added to wells containing cells, and plates were incubated at 37° C. for 10 min. Next, 20 μL of 5 μM anandamide (Cayman catalog #90050) spiked with 8 μCi of anandamide-(ethanolamine-1-[^3H]) (American Radiolabeled Chemicals, Inc., catalog #ART 626) was added to the cells and the plates were incubated for an additional 15 min at 37° C. The reactions were terminated by chilling the plates on ice and adding 20 μL of 0.5M of potassium phosphate buffer (adjusted to pH 2.1 with phosphoric acid).
The acidified reactions were transferred to 96-well filter plates (0.25 mL capacity/well, 1.2 micron glass fiber pre-filter packed above 0.65 micron pore-size PVDF membrane, Millipore catalog MSFCN6B50) containing 25 μL charcoal (neutral activated carbon, Fisher Scientific catalog C170-500) per well. Prior to the assay, charcoal was measured and loaded onto the plate using an aluminum 96-well column loading device (Millipore catalog MACL09625). The filter plate was assembled over an empty 96-well plate (Costar) using a centrifuge alignment frame (Millipore catalog MACF09604) to allow for collection of the filtrate in the receiver plate. The charcoal glass-fiber filter plates were pre-washed with methanol by centrifugation 650×g for 10 min). Next, 80 μL of water was added to the wells of the pre-washed 96 well charcoal filter plate. Then, 90 μL of the acidified reaction mixture was added to the water in the wells of the charcoal plate. The samples were centrifuged as above. The substrate remained bound to the charcoal, whereas the [^3H]-ethanolamine product formed flowed through and was transferred to the microplates containing scintillation cocktail and quantified in a micro-plate scintillation counter (Perkin-Elmer Microbeta). Control reactions with either no cells or cells treated with DMSO alone were performed in triplicate and used to define background (no cells) and 100% activity (DMSO alone).
Following subtraction of background radioactivity, data were expressed as percent inhibition relative to 100% activity and fit with a nonlinear regression curve using GraphPad Prism Software (GraphPad Software Inc). IC50 values were calculated from the resulting dose-response curves constrained at top and bottom to 100% and 0%, respectively.

The target of a further assay is T2, FAAH (Homo sapiens, UniProt O00519).
T2 construct: Reactions were initiated by adding 12.5 μg of brain microsome; tissue ABS, Inc; host or cells: human brain cerebral cortex, membrane/microsome fraction pooled from 3 donors
T2 sequence (O00519 1-579): T1 sequence (O00519 1-579)
The experiment in a line: FAAH inhibition, human brain membrane homogenate assay. Format: biochemical. To be noted: human brain homogenate; average activity; read-out: Human brain Extract FAAH IC50.

SMILES strings stand for the structures. pIC50: −log10 of the molar value. A value given as a limit tells only on which side of the number the result lay.

As for `COc1cc(NC(=O)C(=O)c2c(C)n(Cc3ccc(Cl)cn3)c3ncc(C)cc23)ccn1` [Compound 75, (1-((5-chloropyridin-2-yl)methyl)-2,5-dimethyl-1H-pyrrolo[2,3-b]pyridin-3-yl)-N-(2-methoxypyridin-4-yl)-2-oxoacetamide], the pIC50 on human FAAH-1 and on FAAH was > 7.00 in each case.
Take `COc1ccc2c(c1)c(C(=O)C(=O)Nc1ccnc(OC)c1)c(C)n2Cc1ccncc1` [Compound 16, 2-(5-methoxy-2-methyl-1-(pyridin-4-ylmethyl)-1H-indol-3-yl)-N-(2-methoxypyridin-4-yl)-2-oxoacetamide]: the values for the pIC50 on human FAAH-1 and on FAAH were > 7.00 and 6.00 to 7.00, respectively.
The matching figures for `COc1ccc(Cn2c(C)c(C(=O)C(=O)Nc3ccnc(OC)c3)c3cc(OC)c(Cl)cc32)nc1` [Compound 98, 2-(6-chloro-5-methoxy-1-((5-methoxypyridin-2-yl)methyl)-2-methyl-1H-indol-3-yl)-N-(2-methoxypyridin-4-yl)-2-oxoacetamide]: > 7.00 and > 7.00.
On the same counts, the results for `COc1cc(NC(=O)C(=O)c2c(C)n(Cc3ncc(Cl)cc3F)c3cc(Cl)c(OC)cc23)ccn1` [Compound 97, 2-(6-chloro-1-((5-chloro-3-fluoropyridin-2-yl)methyl)-5-methoxy-2-methyl-1H-indol-3-yl)-N-(2-methoxypyridin-4-yl)-2-oxoacetamide] are > 7.00 and > 7.00.
In the case of `COc1cc(NC(=O)C(=O)c2c(C)n(Cc3ccc(Cl)cc3)c3cccc(OC)c23)ccn1` [Compound 45, 2-(1-(4-chlorobenzyl)-4-methoxy-2-methyl-1H-indol-3-yl)-N-(2-methoxypyridin-4-yl)-2-oxoacetamide], the negative-log IC50 (pIC50) at human FAAH-1 and on FAAH was > 7.00 in each case.
With `COc1ccc2c(c1)c(C(=O)C(=O)Nc1ccnc(OC)c1)c(C)n2Cc1ccc(S(C)(=O)=O)cc1` [Compound 39, 2-(5-methoxy-2-methyl-1-(4-(methylsulfonyl)benzyl)-1H-indol-3-yl)-N-(2-methoxypyridin-4-yl)-2-oxoacetamide], the pIC50 at human FAAH-1 and on FAAH was 5.00 to 6.00 throughout.
As to `COc1cc(NC(=O)C(=O)c2c(C)n(Cc3ncc(Cl)cc3Cl)c3ccccc23)ccn1` [Compound 31, 2-(1-((3,5-dichloropyridin-2-yl)methyl)-2-methyl-1H-indol-3-yl)-N-(2-methoxypyridin-4-yl)-2-oxoacetamide], the pIC50 on human FAAH-1 and on FAAH was > 7.00 each time.
On to `COc1ccc(Cn2c(C)c(C(=O)C(=O)Nc3ccnc(OC)c3)c3cc(OC)ccc32)nc1` [Compound 43, 2-(5-methoxy-1-((5-methoxypyridin-2-yl)methyl)-2-methyl-1H-indol-3-yl)-N-(2-methoxypyridin-4-yl)-2-oxoacetamide], for which the negative-log IC50 (pIC50) at human FAAH-1 was > 7.00; at FAAH, 6.00 to 7.00.
In the case of `COc1ccc(Cn2c(C)c(C(=O)C(=O)Nc3ccnc(OC)c3)c3cc(C)ccc32)nc1` [Compound 69, 2-(1-((5-methoxypyridin-2-yl)methyl)-2,5-dimethyl-1H-indol-3-yl)-N-(2-methoxypyridin-4-yl)-2-oxoacetamide], the negative-log IC50 (pIC50) on human FAAH-1 and on FAAH was > 7.00 throughout.
On to `COc1ccc2c(c1)c(C(=O)C(=O)Nc1ccnc(OC)c1)c(C)n2Cc1ccccn1` [Compound 77, 2-(5-methoxy-2-methyl-1-(pyridin-2-ylmethyl)-1H-indol-3-yl)-N-(2-methoxypyridin-4-yl)-2-oxoacetamide], for which the negative logarithm of the IC50 (pIC50) at human FAAH-1 is > 7.00; at FAAH, 6.00 to 7.00.
On the same counts, the results for `COc1cc(NC(=O)C(=O)c2c(C)n(Cc3ccc(Cl)cc3)c3ccc(N(C)C(=O)OC(C)(C)C)cc23)ccn1` [Compound 7, Tert-butyl(1-(4-chlorobenzyl)-3-(2-((2-methoxypyridin-4-yl)amino)-2-oxoacetyl)-2-methyl-1H-indol-5-yl)(methyl)carbamate] are 6.00 to 7.00 and 6.00 to 7.00.
On the same counts, the results for `COc1ccc2c(c1)c(C(=O)C(=O)Nc1ccnc(OC)n1)c(C)n2Cc1ccc(Cl)cc1` [Compound 46, 2-(1-(4-chlorobenzyl)-5-methoxy-2-methyl-1H-indol-3-yl)-N-(2-methoxypyrimidin-4-yl)-2-oxoacetamide] are > 7.00 and > 7.00.
The matching figures for `COc1cc(NC(=O)C(=O)c2c(C)n(Cc3ccc(Cl)cc3)c3cc(C)c(OC)cc23)ccn1` [Compound 74, 2-(1-(4-chlorobenzyl)-5-methoxy-2,6-dimethyl-1H-indol-3-yl)-N-(2-methoxypyridin-4-yl)-2-oxoacetamide]: > 7.00 and > 7.00.
Regarding `COc1ccc2c(c1)c(C(=O)C(=O)Nc1cc(Cl)nc(OC)c1)c(C)n2Cc1ccc(Cl)cc1` [Compound 47, N-(2-chloro-6-methoxypyridin-4-yl)-2-(1-(4-chlorobenzyl)-5-methoxy-2-methyl-1H-indol-3-yl)-2-oxoacetamide], the pIC50 on human FAAH-1 and at FAAH was > 7.00 in each case.
As for `COc1cc(NC(=O)C(=O)c2c(C)n(Cc3ccc(Cl)cc3)c3ccc(C(F)(F)F)cc23)ccn1` [Compound 21, 2-(1-(4-chlorobenzyl)-2-methyl-5-(trifluoromethyl)-1H-indol-3-yl)-N-(2-methoxypyridin-4-yl)-2-oxoacetamide], the negative logarithm of the IC50 (pIC50) on human FAAH-1 and at FAAH was > 7.00 throughout.
For the molecule `COc1cc(NC(=O)C(=O)c2c(C)n(Cc3ncc(Cl)cc3F)c3ccc(C)cc23)ccn1` [Compound 33, 2-(1-((5-chloro-3-fluoropyridin-2-yl)methyl)-2,5-dimethyl-1H-indol-3-yl)-N-(2-methoxypyridin-4-yl)-2-oxoacetamide], the pIC50 on human FAAH-1 and on FAAH was > 7.00 each time.
Regarding `COc1ccc2c(C(=O)C(=O)Nc3ccnc(OC)c3)c(C)n(Cc3ccc(Cl)cc3)c2c1` [Compound 48, 2-(1-(4-chlorobenzyl)-6-methoxy-2-methyl-1H-indol-3-yl)-N-(2-methoxypyridin-4-yl)-2-oxoacetamide], the pIC50 on human FAAH-1 and on FAAH was > 7.00 throughout.
Regarding `CNCc1ccc2c(c1)c(C(=O)C(=O)Nc1ccnc(OC)c1)c(C)n2Cc1ccc(Cl)cc1` [Compound 25, 2-(1-(4-chlorobenzyl)-2-methyl-5-((methylamino)methyl)-1H-indol-3-yl)-N-(2-methoxypyridin-4-yl)-2-oxoacetamide], the pIC50 on human FAAH-1 and on FAAH was 6.00 to 7.00 throughout.
For the molecule `COc1cc(NC(=O)C(=O)c2c(C)n(Cc3ccc(Cl)cc3)c3c(OC)cccc23)ccn1` [Compound 51, 2-(1-(4-chlorobenzyl)-7-methoxy-2-methyl-1H-indol-3-yl)-N-(2-methoxypyridin-4-yl)-2-oxoacetamide], the pIC50 at human FAAH-1 and at FAAH was 6.00 to 7.00 in each case.

The pIC50 is the negative decadic logarithm of the IC50, by convention in mol/L.

(Values after patent US20150175599A1, “FAAH Inhibitors” (Ironwood Pharmaceuticals, Inc., priority 2010, published 2015).)
